# US5922681A, “Endothelin antagonists” (Warner-Lambert Company, priority 1992, dated 1999)
# Non-standard residues stand in square brackets, D forms with d. Residues, ends and D or L forms follow the SMILES beside them. No end group written: not given here.
# What was measured:
# [1] = target: endothelin receptor (Rat Heart); assay: [125I]-ET-1 receptor binding, Rat Heart
# Procedure: (§1) The compounds of Formula I are valuable antagonists of endothelin. […] Compounds of Formula I were tested for their ability to inhibit [^125 I]-ET-1([^125 I]-Endothelin-1) binding in a receptor assay according to the following procedures Doherty, A. M., et al, J. Cardiovascul. Pharmacol. 17(Suppl 7):S59-61 (1991) and Doherty, A. M., et al, Bio. Org.
# [2] = target: endothelin receptor (Human Placenta); assay: [125I]-ET-1 receptor binding, Human Placenta
# Procedure: as §1
# [3] = system: endothelin-stimulated arachidonic acid release in cultured vascular smooth muscle cells; assay: AAR assay for antagonist activity; assay type: cell-based, rabbit; conditions: ET-1 0.3 nM
# Procedure: AAR Assay for Antagonist Activity
# Antagonist activity is measured by the ability of added compounds to reduce endothelin-stimulated arachidonic acid release in cultured vascular smooth muscle cells as arachidonic acid release (AAR). [^3 H] Arachidonic Acid Loading Media (LM) is DME/F12+0.5% FCS×0.25 mCi/mL [^3 H] arachidonic acid (Amersham). Confluent monolayers of cultured rabbit renal artery vascular smooth muscle cells were incubated in 0.5 mL of the LM over 18 hours, at 37° C., in 5% CO2. The LM was aspirated and the cells were washed once with the assay buffer (Hank's BSS+10 mM HEPES+fatty acid-free BSA (1 mg/mL), and incubated for 5 minutes with 1 mL of the prewarmed assay buffer. This solution was aspirated, followed by an additional 1 mL of prewarmed assay buffer, and further incubated for another 5 minutes. A final 5-minute incubation was carried out in a similar manner. […] This solution was then collected, […] of scintillation cocktail was added, and the amount of [^3 H] arachidonic acid was determined in a liquid scintillation counter.
# [4] = system: ET-1-induced vasoconstriction; conditions: isolated porcine coronary arteries; cited from earlier work
# [5] = system: ETA receptor over the ETB subtype; conditions: cited from earlier work
# [6] = system: endothelin-induced arachidonic acid release in vascular smooth muscle cells (ETA); conditions: cited from earlier work
# [7] = system: endothelin-stimulated constriction in the rabbit femoral renal (ETA), and pulmonary arteries (ETB); conditions: cited from earlier work
# ETB = conditions: isolated, endothelium-intact porcine pulmonary arteries; cited from earlier work
# ET receptor = conditions: cited from earlier work
# [8] = system: ET-1-induced vasoconstriction; conditions: isolated rabbit aorta; cited from earlier work
# pressor response to ET-1 = conditions: IV bolus 1 mg/kg; cited from earlier work
# ET-1-induced arrythmia = conditions: rats; cited from earlier work
# [9] = system: vasoconstriction of the basilar artery; conditions: canine subarachnoid hemorrhage, intracisternal 0.1 mg; cited from earlier work
compound,measurement,setting,value
"C[C@@](Cc1c[nH]c2ccccc12)(NC(=O)OC1C2CC3CC(C2)CC1C3)C(=O)N[C@H](CC(=O)O)Cc1ccccc1 (relative stereo) [Compound 4, [S-(R*,R*)]-β-[[3-(1H-indol-3-yl)-2-methyl-1-oxo-2-[[(tricyclo[3.3.1.1^3,7]dec-2-yloxy)carbonyl]-amino]propyl]amino]benzenebutanoic acid]",IC50,[1],47.3 µM
same,IC50,[2],58.3 µM
same,AAR IC50 (μM) (Antag) % inhib at 10 μM,[3],62.4%
CC(C)C[C@@H]1NC(=O)[C@@H](C(C)C)NC(=O)[C@@H]2CCCN2C(=O)[C@@H](CC(=O)O)NC(=O)[C@@H](Cc2c[nH]c3ccccc23)NC1=O [BQ-123] (cyclo(L[dW][dD]P[dV])),Antagonism of ET-1-induced vasoconstriction,[4],antagonize
Ac-(β-phenyl)D-Phe-L-Leu-L-Asp-L-lle-L-lle-L-Trp trifluoroacetate [PD 142893],Binding selectivity for the ETA receptor over the ETB subtype,[5],tenfold
same,Antagonism of endothelin-induced arachidonic acid release,[6],functional antagonist
same,Antagonism of endothelin-stimulated constriction,[7],antagonizes
"ET[1,3,11,15-Ala]: linear ET analog, reported selective ETB agonist (ASASSLMDKEAVYFAHLDIIW; Endothelin-1; UniProt P05305 53-73, looked up, variant C1A C3A C11A C15A)",Vasorelaxation,ETB,caused vasorelaxation
"ET[1-20]: ET-1 lacking the C-terminal amino acid (Trp-21) (CSCSSLMDKECVYFCHLDII; ends and bridges not checked; cysteine pairing not given here; UniProt P05305 53-72, looked up, fragment)","Functional / vasoconstrictor activity, fold less",ET receptor,approximately 1000 fold
"ET[6-21, 1,3,11,15-Ala]",Vasorelaxation,ETB,caused vasorelaxation
"ET[8-21,11,15-Ala]",Vasorelaxation,ETB,caused vasorelaxation
FR 139317,"pA2, inhibition of ET-1-induced vasoconstriction",[8],7.2
same,Initial depressor response to ET-1,pressor response to ET-1,no effect
same,Pressor response to ET-1,pressor response to ET-1,completely inhibited
same,ET-1-induced arrythmia,ET-1-induced arrythmia,suppressed
same,Vasoconstriction of the basilar artery after 7 days,[9],significantly inhibited
"N-acetyl-ET[10-21]: truncated ET analog, reported selective ETB agonist (Ac-ECVYFCHLDIIW; cysteine pairing not given here; UniProt P05305 62-73, looked up, fragment)",Vasorelaxation,ETB,caused vasorelaxation
